Consider three compounds from patent publication US20230133538A1, “TARGETED DEGRADERS OF ABERRANT TAU BASED ON THE PET TRACER PBB3” (DANA-FARBER CANCER INSTITUTE, INC., priority 2020, published 2023).

For test [1], the target named is T1, tau protein in human tau-A152T neurons (Homo sapiens, UniProt P10636, A469T).
T1 construct: degrade tau protein in cultured human differentiated frontotemporal lobar dementia (FTD) neurons; endogenous in cells; host or cells: human differentiated FTD neurons, tau-A152T, 6-week differentiated
T1 sequence (P10636 1-441 isoform P10636-8 A152T): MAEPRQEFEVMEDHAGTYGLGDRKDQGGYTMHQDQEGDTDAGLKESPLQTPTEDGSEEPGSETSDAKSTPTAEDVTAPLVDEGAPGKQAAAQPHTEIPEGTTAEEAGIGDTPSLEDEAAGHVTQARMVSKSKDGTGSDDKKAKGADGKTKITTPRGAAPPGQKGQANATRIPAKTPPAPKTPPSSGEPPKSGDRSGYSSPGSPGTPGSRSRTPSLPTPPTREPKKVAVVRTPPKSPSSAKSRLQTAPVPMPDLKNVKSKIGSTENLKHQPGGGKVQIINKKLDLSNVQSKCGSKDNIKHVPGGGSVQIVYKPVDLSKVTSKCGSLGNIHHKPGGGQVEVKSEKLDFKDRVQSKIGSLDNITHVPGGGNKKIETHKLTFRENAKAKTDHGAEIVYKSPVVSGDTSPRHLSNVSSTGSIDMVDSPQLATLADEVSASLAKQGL
The test can be described thus: Dose-effect on tau in tau-A152T neurons (Western blot, total tau TAU5 and P-Tau S396). It is filed as cell-based. The settings on record: human tau-A152T neurons (6-week differentiated), 24 hours treatment, 1 μM or 10 μM. The method, then: (§1) Assays were performed according to protocols described in Silva et al., eLife, 8:e45457 (2019). Each of the bispecific compounds, along with the control parental scaffold, was evaluated for the ability to degrade tau protein in cultured human differentiated frontotemporal lobar dementia (FTD) neurons.
(§2) For each condition, 1 well of differentiated neuronal cells (6 well-plate) was washed and collected in PBS, pelleted and lysed in radioimmunoprecipitation assay (RIPA) buffer (Boston BioProducts) with 2% SDS (Sigma), protease inhibitors (Roche cOmplete™ Mini tablets), and phosphatase inhibitors (Sigma), followed by sonication in a water sonicator (Bransonic® Ultrasonic Baths, Thomas Scientific) for 5 minutes, and centrifugation at 20,000 g for 15 minutes. Supernatants were transferred to new tubes, total protein concentration was quantified with the Pierce™ BCA Protein Assay Kit (Thermo Scientific™), and SDS-PAGE gels were loaded with 10 μg total protein per well (pre-boiled samples). Western blots were performed with the Novex NuPAGE™ SDS-PAGE Gel System (Invitrogen™). All samples were resolved in 7% Tris-Acetate gels with Tris-Acetate running buffer (Invitrogen™). Blots were probed with antibodies against total tau (TAU5) and phosphorylated tau (Ser396), along with (3-actin as a loading control; followed by corresponding HRP-linked secondary antibodies (Cell Signaling Technology®), and SuperSignal™ West Pico Chemiluminescent Substrate (Thermo Scientific™) detection. Membranes were exposed to autoradiographic film (LabScientific) and films were scanned using an Epson® Perfection V800 Photo Scanner. Protein band intensities (pixel mean intensity) were quantified using Adobe Photoshop® CS5 Histogram function.
(§3) The vehicle alone (DMSO) had no effect on tau. However, varying degrading activity was observed among the specific compounds with overall similar relative levels of degrading activity between tau-A152T neurons and tau-P301L neurons. Bispecific compounds were added at the doses indicated (either 1 μM or 10 μM).
Background: Immunoblotting shows a protein as a band on a membrane.

Test [2] concerns the target T2, tau protein in human tau-P301L neurons (Homo sapiens, UniProt P10636, P618L).
T2 construct: degrade tau protein in cultured human differentiated frontotemporal lobar dementia (FTD) neurons; endogenous in cells; host or cells: human differentiated FTD neurons, tau-P301L, 6-week differentiated
The test is described as follows: Dose-effect on tau in tau-P301L neurons (Western blot, total tau TAU5 and P-Tau S396). In kind it is cell-based. To be noted: human tau-P301L neurons (6-week differentiated), 24 hours treatment, 1 μM or 10 μM. The method, then:
as §1, §2, §3

SMILES strings stand for the structures.

T2 sequence (P10636 1-441 isoform P10636-8 P301L): as the sequence (P10636 1-441 isoform P10636-8 A152T) above, with T152A, P301L counted along it

As for `Nc1cccc2c1CN(C1CCC(=O)NC1=O)C2=O` (stereo not drawn) [Lenalidomide, reference compound], the “degradation of hyperphosphorylated tau and/or total tau” value (“degradation” below) in test [1] and in test [2] was “no effect on tau levels” in each case.

Turning to `CNc1ccc(/C=C/C=C/c2nc3ccc(OCCOCCOCCNC(=O)COc4cccc5c4C(=O)N(C4CCC(=O)NC4=O)C5=O)cc3s2)cn1` (stereo not drawn) [compound 4, 2-(2-(2,6-dioxopiperidin-3-yl)-1,3-dioxoisoindolin-4-yloxy)-N-(2-(2-(2-(2-((1E,3E)-4-(6-(methylamino)pyridin-3-yl)buta-1,3-dienyl)benzo[d]thiazol-6-yloxy)ethoxy)ethoxy)ethyl)acetamide], the “degradation” value in test [1] and in test [2] was “significantly degraded” each time.

In the case of `CNc1ccc(/C=C/C=C/c2nc3ccc(OCCCCCCNC(=O)COc4cccc5c4C(=O)N(C4CCC(=O)NC4=O)C5=O)cc3s2)cn1` (stereo not drawn) [compound 2, 2-(2-(2,6-dioxopiperidin-3-yl)-1,3-dioxoisoindolin-4-yloxy)-N-(6-(2-((1E,3E)-4-(6-(methylamino)pyridin-3-yl)buta-1,3-dienyl)benzo[d]thiazol-6-yloxy)hexyl)acetamide], the “degradation” value in test [1] and in test [2] was “significantly degraded” each time.
